Key:
CYP3A4(BFC) = CYP3A4(BFC) (Homo sapiens, UniProt P08684); test: CYP3A4(BFC) inhibition; type: in vitro ADME; settings: CYP3A4, substrate BFC; read-out: Cyp IC50 3A4(BFC)
Method: CYP (Cytochrome P450) enzymes are the major drug metabolizing enzymes present in the liver. The inhibition of CYP enzyme activity (IC50) for each of CYP1A2, CYP2C19, CYP2C9, CYP2D6, CYP3A4(BFC) and CYP3A4(BQ) is determined for compounds, where inhibition of metabolism of a known substrate leads to a decrease in the fluorescence of the metabolized product. The fluorescence of the product is monitored as a function of compound concentration. Compounds are dissolved in DMSO to a concentration of 100 mM. These are diluted 1 μL into 82 μL of acetonitrile. An 11 μL aliquot of this solution is then added to 204 μL of cofactor mix (1.3% NADPH Regeneration system Solution A, 1.04% NADPH Regeneration system Solution B from BD Biosciences, 5% acetonitrile and 0.05% DMSO). These are then serially diluted 1:1 (160 μL to 160 μL co-factor mix) for a total of 10 points. A 10 μL aliquot of this final mixture is dispensed into 384 well assay plates and incubated for 10 minutes at 37° C. […] Assay plates are incubated at 37° C. (CYP1A2-15 min; CYP2C9-45 min; CYP2C19, 2D6 and 3A4-30 min) and read in a Tecan Safire 2 plate reader (CYP1A2, 2C19 and 3A4 409 ex/460 em; CYP2C9 and 2D6 409 ex/530 em). The signal versus compound concentration is used to determine the IC50. The enzymes and substrates for this assay are obtained from BD Biosciences.

BCR-NTRK3 BaF3 cells = molecular target: T1, BCR-NTRK3 BaF3 cells (Homo sapiens, UniProt Q16288); test: BaF3 BCR-NTRK3 cell proliferation assay (ATPlite); type: cell-based; settings: read-out: Inhibition of Cell Proliferation IC50, BCR/BaF3 TrkC
T1 construct: fused on or other part: P11274 (Breakpoint cluster region protein)
T1 sequence (Q16288 whole entry, the tested form may be a part): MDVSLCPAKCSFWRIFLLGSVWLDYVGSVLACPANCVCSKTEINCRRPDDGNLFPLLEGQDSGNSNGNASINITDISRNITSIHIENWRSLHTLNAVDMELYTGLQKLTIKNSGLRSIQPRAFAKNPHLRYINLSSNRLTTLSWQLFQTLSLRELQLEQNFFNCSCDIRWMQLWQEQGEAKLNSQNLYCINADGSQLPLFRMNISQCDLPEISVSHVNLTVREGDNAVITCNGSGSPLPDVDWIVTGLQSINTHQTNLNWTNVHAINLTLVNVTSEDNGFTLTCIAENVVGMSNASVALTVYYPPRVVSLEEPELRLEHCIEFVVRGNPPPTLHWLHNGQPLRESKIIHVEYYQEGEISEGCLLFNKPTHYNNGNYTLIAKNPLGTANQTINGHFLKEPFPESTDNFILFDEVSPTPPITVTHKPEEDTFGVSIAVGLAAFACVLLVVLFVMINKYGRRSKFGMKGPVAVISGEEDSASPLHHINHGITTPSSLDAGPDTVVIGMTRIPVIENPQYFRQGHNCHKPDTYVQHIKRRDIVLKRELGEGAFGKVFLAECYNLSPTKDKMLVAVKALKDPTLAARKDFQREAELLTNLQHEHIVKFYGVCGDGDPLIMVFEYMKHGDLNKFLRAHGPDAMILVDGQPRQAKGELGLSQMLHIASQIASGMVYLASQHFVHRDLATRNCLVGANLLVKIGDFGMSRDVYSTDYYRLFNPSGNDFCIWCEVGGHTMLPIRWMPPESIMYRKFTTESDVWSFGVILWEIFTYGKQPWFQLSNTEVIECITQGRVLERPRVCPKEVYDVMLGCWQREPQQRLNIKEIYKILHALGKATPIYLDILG
Method: Compounds are assessed in a variety of cell based assays. For example BaF3 cells engineered with any of BCR-FMS, BCR-KIT, BCR-FLT3, BCR-NTRK1, BCR-NTRK2, and BCR-NTRK3, are used in cell proliferation assays to assess inhibitory activity of Fms, Kit, Flt-3, TrkA, TrkB, and TrkC, respectively. An MV-4-11 (leukemia) cell proliferation assay is used to assess inhibitory activity in Flt-3, and SKNSH (human neuroblastoma) cell proliferation assay is used to assess efficacy of Fms/Trk inhibitors. Additional cells may be assayed similarly to assess the efficacy of Fms/Trk inhibitors, such as MiaPaCa (human pancreatic cancer) and Capan-1 (human pancreatic carcinoma) cells. Reagent and assay conditions are as follows: • BaF3 cells: • Maintained in RPMI containing 10% FBS, 1% PenStrep, 1% NEAA, and 1% L-Glutamine, supplemented with 1 mg/mL G418 and 5% WEHI-CM (or recombinant murine IL-3). • Confluent cells are split 1:50 to 1:100 every 3-4 days. • MV-4-11 cells: • Maintained in Iscove's Modified Dulbecco's Medium containing 10% FBS. • Confluent cells are split 1:4 every 3-4 days. • SKNSH cells: RPMI containing 10% FBS. On day 1, cells are counted, then centrifuged in a conical tube for 5 minutes at 1000 rpm. The supernatant is removed and cells are re-suspended as follows: • BaF3: resuspend in growth media +1 mg/mL G418 (without WEHFIL-3) to 2×10^5 cells/mL. • MV-4-11: resuspend in growth media to 5×10^5 cells/mL. • SKNSH: resuspend in growth media to 2×10^4 cells/mL. The cells are plated (50 μL, 150 μL for SKNSH cells) in each well of a 96-well dish (Corning 3610) and incubated at 37° C. in 5% CO2 overnight, cells plated to a final concentration of cells as follows: • BaF3: 10,000 cells per well. • MV-4-11: 25,000 cells per well. • SKNSH: 3,000 cells per well. On day 2, compound at a maximum concentration of 5 mM is serially diluted 1:3 for a total of 8 point titration with DMSO as a control. A 1 μL aliquot of each dilution point is added to 249 μL growth media and 50 μL is added to a well containing cells, providing 10 μM compound for the maximum concentration point. The cells are incubated for 3 days at 37° C. in 5% CO2. For SKNSH cells, a 0.75 μL aliquot of appropriate dilution in DMSO is added to 150 μL of cells. On day 5, ATPlite 1 step Luminescence Assay System (Perkin Elmer #6016739) is brought to room temperature along with the cell cultures. ATPlite is added to each well as follows: • BaF3: 25 μL per well. • MV-4-11: 40 μL per well. • SKNSH: 20 μL per well. The cells are incubated at room temperature for 10 minutes, then luminescence is read on Safire reader. The measured luminescence correlates directly with cell number, such that the reading as a function of compound concentration is used to determine the IC50 value.
It is understood that the results of these assays may vary as assay conditions are varied. Inhibition levels determined under the conditions described herein represent a relative activity for the compounds tested under the specific conditions employed. The cell based assays are likely to show variability due to the complexity of the system and the sensitivity thereof to any changes in the assay conditions. […] Results for compounds that are tested and show substantially no inhibition below the highest tested concentration are represented as “-” in the tables below. In some instances, the compounds were not tested in all of the assays, or assay results were not valid, as indicated by NA in the tables below.

CYP3A4(BFC), sequence (P08684 whole entry): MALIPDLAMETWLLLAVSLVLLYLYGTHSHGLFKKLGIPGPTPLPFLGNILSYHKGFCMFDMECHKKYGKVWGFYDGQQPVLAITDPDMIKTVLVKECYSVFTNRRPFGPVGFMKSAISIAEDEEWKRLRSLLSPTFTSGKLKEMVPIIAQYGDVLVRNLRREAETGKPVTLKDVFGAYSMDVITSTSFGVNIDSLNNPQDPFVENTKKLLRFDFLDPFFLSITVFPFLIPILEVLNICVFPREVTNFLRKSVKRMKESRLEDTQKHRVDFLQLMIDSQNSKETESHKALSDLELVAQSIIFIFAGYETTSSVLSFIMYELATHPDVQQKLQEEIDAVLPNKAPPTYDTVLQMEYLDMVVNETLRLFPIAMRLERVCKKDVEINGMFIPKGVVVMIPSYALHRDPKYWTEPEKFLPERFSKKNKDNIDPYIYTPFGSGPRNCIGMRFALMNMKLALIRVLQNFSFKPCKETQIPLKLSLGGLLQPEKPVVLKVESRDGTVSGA

Structure (SMILES) | IC50 (CYP3A4(BFC)) [µM] | IC50 (BCR-NTRK3 BaF3 cells) [µM]
CC1CCC(Nc2ncc(Cc3c[nH]c4ncc(Cl)cc34)cn2)CC1 (stereo not drawn) [Compound P-3009, [5-(5-Chloro-1H-pyrrolo[2,3-b]pyridin-3-ylmethyl)-pyrimidin-2-yl]-(4-methyl-cyclohexyl)-amine] | 5 to 10 | > 10
O=C(c1ccc(NC2CCC(F)(F)CC2)nc1Cl)c1c[nH]c2ncnc(NCC(F)(F)F)c12 [Compound P-4057, [2-chloro-6-[(4,4-difluorocyclohexyl)amino]-3-pyridyl]-[4-(2,2,2-trifluoroethylamino)-7H-pyrrolo[2,3-d]pyrimidin-5-yl]methanone] | > 10 | < 1
O=C(c1ccc(NC2CCC(F)(F)CC2)nc1Cl)c1c[nH]c2ncnc(NC3CC3)c12 [Compound P-4059, [2-chloro-6-[(4,4-difluorocyclohexyl)amino]-3-pyridyl]-[4-(cyclopropylamino)-7H-pyrrolo[2,3-d]pyrimidin-5-yl]methanone] | > 10 | < 0.1
CCNc1ncnc2[nH]cc(C(=O)c3ccc(Nc4ccc(C5CC5)nc4)nc3F)c12 [Compound P-4060, [6-[(6-cyclopropyl-3-pyridyl)amino]-2-fluoro-3-pyridyl]-[4-(ethylamino)-7H-pyrrolo[2,3-d]pyrimidin-5-yl]methanone] | > 10 | < 0.01
O=C(c1ccc(NC2CCC(F)(F)CC2)nc1F)c1c[nH]c2ncnc(NCC(F)(F)F)c12 [Compound P-4061, [6-[(4,4-difluorocyclohexyl)amino]-2-fluoro-3-pyridyl]-[4-(2,2,2-trifluoroethylamino)-7H-pyrrolo[2,3-d]pyrimidin-5-yl]methanone] | > 10 | < 0.01
CCc1ccc(Nc2ccc(C(=O)c3c[nH]c4ncnc(NCC(C)(C)O)c34)c(F)n2)cn1 [Compound P-4064, [6-[(6-ethyl-3-pyridyl)amino]-2-fluoro-3-pyridyl]-[4-[(2-hydroxy-2-methyl-propyl)amino]-7H-pyrrolo[2,3-d]pyrimidin-5-yl]methanone] | > 10 | < 0.01
COc1ccc(Nc2ccc(C(=O)c3c[nH]c4ncnc(NC(C)C)c34)c(F)n2)cn1 [Compound P-4066, [2-fluoro-6-[(6-methoxy-3-pyridyl)amino]-3-pyridyl]-[4-(isopropylamino)-7H-pyrrolo[2,3-d]pyrimidin-5-yl]methanone] | > 10 | < 0.01
COc1ccc(Nc2ccc(C(=O)c3c[nH]c4ncnc(NCC5CC5)c34)c(F)n2)cn1 [Compound P-4067, [4-(cyclopropylmethylamino)-7H-pyrrolo[2,3-d]pyrimidin-5-yl]-[2-fluoro-6-[(6-methoxy-3-pyridyl)amino]-3-pyridyl]methanone] | > 10 | < 0.01

More lines, now with the values ahead:

IC50 (CYP3A4(BFC)) [µM] | IC50 (BCR-NTRK3 BaF3 cells) [µM] | Structure (SMILES)
> 10 | > 10 | Cc1cnc2[nH]cc(Cc3cnc(Nc4ccc(F)cc4)nc3)c2c1 [Compound P-3010, (4-Fluoro-phenyl)-[5-(5-methyl-1H-pyrrolo[2,3-b]pyridin-3-ylmethyl)-pyrimidin-2-yl]-amine]
> 10 | < 0.1 | Clc1ccc(Nc2ncc(Cc3c[nH]c4ncc(Cl)cc34)cn2)cc1 [Compound P-3011, (4-Chloro-phenyl)-[5-(5-chloro-1H-pyrrolo[2,3-b]pyridin-3-ylmethyl)-pyrimidin-2-yl]-amine]
> 10 | < 1 | Fc1ccc(Nc2ncc(Cc3c[nH]c4ncc(Cl)cc34)cn2)cc1 [Compound P-3012, [5-(5-Chloro-1H-pyrrolo[2,3-b]pyridin-3-ylmethyl)-pyrimidin-2-yl]-(4-fluoro-phenyl)-amine]
> 10 | > 10 | Fc1nc(NC2CCC(F)(F)CC2)ccc1Cc1c[nH]c2ncc(Cl)cc12 [Compound P-3013, [5-(5-Chloro-1H-pyrrolo[2,3-b]pyridin-3-ylmethyl)-6-fluoro-pyridin-2-yl]-(4,4-difluoro-cyclohexyl)-amine]
> 10 | < 0.01 | COc1ccc(Nc2ccc(C(=O)c3c[nH]c4ncnc(NC(C)(C)C)c34)c(F)n2)cn1 [Compound P-4055, [4-(tert-butylamino)-7H-pyrrolo[2,3-d]pyrimidin-5-yl]-[2-fluoro-6-[(6-methoxy-3-pyridyl)amino]-3-pyridyl]methanone]
> 10 | < 0.01 | COc1ccc(Nc2ccc(C(=O)c3c[nH]c4ncnc(NC5CCC(F)(F)CC5)c34)c(F)n2)cn1 [Compound P-4056, [4-[(4,4-difluorocyclohexyl)amino]-7H-pyrrolo[2,3-d]pyrimidin-5-yl]-[2-fluoro-6-[(6-methoxy-3-pyridyl)amino]-3-pyridyl]methanone]
> 10 | < 0.1 | CNc1ncnc2[nH]cc(C(=O)c3ccc(NC4CCC(F)(F)CC4)nc3Cl)c12 [Compound P-4058, [2-chloro-6-[(4,4-difluorocyclohexyl)amino]-3-pyridyl]-[4-(methylamino)-7H-pyrrolo[2,3-d]pyrimidin-5-yl]methanone]
> 10 | < 0.01 | O=C(c1ccc(NC2CCC(F)(F)CC2)nc1F)c1c[nH]c2ncnc(NC3CC3)c12 [Compound P-4062, [4-(cyclopropylamino)-7H-pyrrolo[2,3-d]pyrimidin-5-yl]-[6-[(4,4-difluorocyclohexyl)amino]-2-fluoro-3-pyridyl]methanone]
> 10 | < 0.01 | CNc1ncnc2[nH]cc(C(=O)c3ccc(NC4CCC(F)(F)CC4)nc3F)c12 [Compound P-4063, [6-[(4,4-difluorocyclohexyl)amino]-2-fluoro-3-pyridyl]-[4-(methylamino)-7H-pyrrolo[2,3-d]pyrimidin-5-yl]methanone]
> 10 | < 0.01 | CCc1ccc(Nc2ccc(C(=O)c3c[nH]c4ncnc(N)c34)c(F)n2)cn1 [Compound P-4065, (4-amino-7H-pyrrolo[2,3-d]pyrimidin-5-yl)-[6-[(6-ethyl-3-pyridyl)amino]-2-fluoro-3-pyridyl]methanone]
> 10 | < 0.01 | CCCNc1ncnc2[nH]cc(C(=O)c3ccc(Nc4ccc(OC)nc4)nc3F)c12 [Compound P-4068, [2-fluoro-6-[(6-methoxy-3-pyridyl)amino]-3-pyridyl]-[4-(propylamino)-7H-pyrrolo[2,3-d]pyrimidin-5-yl]methanone]
> 10 | – | CCCNc1ncnc2[nH]cc(C(=O)c3ccc(Nc4ccc(C)nc4)nc3F)c12 [Compound P-4114, [2-fluoro-6-[(6-methyl-3-pyridyl)amino]-3-pyridyl]-[4-(propylamino)-7H-pyrrolo[2,3-d]pyrimidin-5-yl]methanone]

From patent US8901118B2, “Compounds and methods for kinase modulation, and indications therefor” (Plexxikon Inc., priority 2010, dated 2014)
